Test results reported in patent publication US10961205B2, “1,2,4-oxadiazole derivatives as immunomodulators” (Aurigene Discovery Technologies Limited, priority 2013, dated 2021).

Tested on: PD-L1
Experiment: Rescue of mouse splenocyte proliferation in presence of recombinant PD-L1 (CFSE proliferation assay)
Format: cell-based
Details: anti-CD3/CD28 stimulated mouse splenocytes in presence of ligand (PDL-1), 72 h, stimulated splenocyte proliferation normalised as 100%
Method: Rescue of Mouse Splenocyte Proliferation in Presence of Recombinant PD-L1/PD-L2
Recombinant mouse PD-L1 (rm-PDL-1, cat no: 1019-B7-100 & rh-PDL-1, cat no: 156-B7-100, R&D Systems) were used as the source of PD-L1.
Mouse splenocytes harvested from 6-8 weeks old C57 BL6 mice; RPMI 1640 (GIBCO, Cat #11875); DMEM with high glucose (GIBCO, Cat #D6429); Fetal Bovine Serum [Hyclone, Cat #SH30071.03]; Penicillin (10000 unit/mL)-Streptomycin(10,000 μg/mL) Liquid (GIBCO, Cat #15140-122); MEM Sodium Pyruvate solution 100 mM (100×), Liquid (GIBCO, Cat #11360); Nonessential amino acid (GIBCO, Cat #11140); L-Glutamine (GIBCO, Cat #25030); Anti-CD3 antibody (eBiosciences—16-0032); Anti-CD28 antibody (eBiosciences—16-0281); ACK lysis buffer (1 mL) (GIBCO, Cat #-A10492); Histopaque (density-1.083 gm/mL) (SIGMA 10831); Trypan blue solution (SIGMA-T8154); 2 mL Norm Ject Luer Lock syringe-(Sigma 2014-12); 40 μm nylon cell strainer (BD FALCON 35230); Hemacytometer (Bright line-SIGMA Z359629); FACS Buffer (PBS/0.1% BSA): Phosphate Buffered Saline (PBS) pH 7.2 (HiMedia TS1006) with 0.1% Bovine Serum Albumin (BSA) (SIGMA A7050) and sodium azide (SIGMA 08591); 5 mM stock solution of CFSE: CFSE stock solution was prepared by diluting lyophilized CFSE with 180 μL of Dimethyl sulfoxide (DMSO C2H6SO, SIGMA-D-5879) and aliquoted in to tubes for further use. Working concentrations were titrated from 10 μM to 1 μM. (eBioscience—650850-85); 0.05% Trypsin and 0.02% EDTA (SIGMA 59417C); 96-well format ELISA plates (Corning CLS3390); BD FACS caliber (E6016); Recombinant mouse B7-H1/PDL1 Fc Chimera, (rm-PD-L1 cat no: 1019-B7-100).
Splenocytes harvested in a 50 mL falcon tube by mashing mouse spleen in a 40 μm cell strainer were further treated with 1 mL ACK lysis buffer for 5 min at room temperature. After washing with 9 mL of RPMI complete media, cells were re-suspended in 3 mL of 1×PBS in a 15 mL tube. 3 mL of Histopaque was added carefully to the bottom of the tube without disturbing overlaying splenocyte suspension. After centrifuging at 800×g for 20 min at room temperature, the opaque layer of splenocytes was collected carefully without disturbing/mixing the layers. Splenocytes were washed twice with cold 1×PBS followed by total cell counting using Trypan Blue exclusion method and used further for cell based assays.
Splenocytes were cultured in RPMI complete media (RPMI+10% fetal bovine serum+1 mM sodium pyruvate+10,000 units/mL penicillin and 10,000 μg/mL streptomycin) and maintained in a CO2 incubator with 5% CO2 at 37° C.
CFSE is a dye that passively diffuses into cells and binds to intracellular proteins. 1×10^6 cells/mL of harvested splenocytes were treated with 5 μM of CFSE in pre-warmed 1×PBS/0.1% BSA solution for 10 min at 37° C. Excess CFSE was quenched using 5 volumes of ice-cold culture media to the cells and incubated on ice for 5 min. CFSE labelled splenocytes were further given three washes with ice cold complete RPMI media. CFSE labelled 1×10^5 splenocytes added to wells containing either MDA-MB231 cells (1×10^5 cells cultured in high glucose DMEM medium) or recombinant […] PDL-1 (100 ng/mL) and test compounds. Splenocytes were stimulated with anti-mouse CD3 and anti-mouse CD28 antibody (1 μg/mL each), and the culture was further incubated for 72 h at 37° C. with 5% CO2. Cells were harvested and washed thrice with ice cold FACS buffer and % proliferation was analyzed by flow cytometry with 488 nm excitation and 521 nm emission filters.
Percent splenocyte proliferation was analyzed using cell quest FACS program and percent rescue of splenocyte proliferation by compound was estimated after deduction of % background proliferation value and normalising to % stimulated splenocyte proliferation (positive control) as 100%.
Stimulated splenocytes: Splenocytes+anti-CD3/CD28 stimulation
Background proliferation: Splenocytes+anti-CD3/CD28+PD-L1
Compound proliferation: Splenocytes+anti-CD3/CD28+PD-L1+Compound […]

Row | SMILES | Percent rescue of splenocyte proliferation @ 100 nM compound concentration [%]
1 | NC(=O)C[C@H](N)c1nc([C@@H](N)CO)no1 [Compound 1] | 93
2 | NC(=O)C[C@H](NC(=O)N[C@@H](CO)C(=O)O)c1nc([C@@H](N)CO)no1 [Compound 2] | 50
3 | CC(O)[C@H](NC(=O)N[C@@H](CC(N)=O)c1nc([C@@H](N)CO)no1)C(=O)O (some centres unmarked) [Compound 4] | 89
4 | CC(O)[C@@H](N)c1noc([C@@H](CC(N)=O)NC(=O)N[C@H](CO)C(=O)O)n1 (some centres unmarked) [Compound 5] | 67.6
5 | COC(=O)[C@@H](NC(=O)N[C@@H](CC(N)=O)c1nc([C@@H](N)CO)no1)C(C)O (some centres unmarked) [Compound 6] | 84
6 | CC(O)[C@H](NC(=O)N[C@@H](CC(N)=O)c1nc([C@@H](N)CO)no1)C(N)=O (some centres unmarked) [Compound 7] | 55
7 | N[C@@H](CO)c1noc([C@H](CCC(=O)O)NC(=O)N[C@@H](CO)C(=O)O)n1 [Compound 8] | 67
8 | CCCC(=O)N[C@@H](CO)c1noc([C@H](CC(N)=O)NC(=O)N[C@H](C(=O)O)C(C)O)n1 (some centres unmarked) [Compound 9] | 34
9 | COC[C@H](N)c1noc([C@H](CC(N)=O)NC(=O)N[C@H](C(=O)O)C(C)O)n1 (some centres unmarked) [Compound 10] | 49
10 | CC(O)[C@@H](NC(=O)N[C@@H](CC(N)=O)c1nc([C@@H](N)CO)no1)C(=O)O (some centres unmarked) [Compound 11] | 90
11 | CC(O)[C@H](NC(=O)N[C@@H](CC(N)=O)c1nc([C@H](N)CO)no1)C(=O)O (some centres unmarked) [Compound 12] | 64
12 | CC(O)[C@H](NC(=O)N[C@H](CC(N)=O)c1nc([C@@H](N)CO)no1)C(=O)O (some centres unmarked) [Compound 13] | 74
13 | CC(O)[C@@H](NC(=O)N[C@H](CC(N)=O)c1nc([C@H](N)CO)no1)C(=O)O (some centres unmarked) [Compound 15] | 83
14 | CC(O)[C@@H](NC(=O)N[C@@H](CC(N)=O)c1nc([C@H](N)CO)no1)C(=O)O (some centres unmarked) [Compound 16] | 72
15 | CC(O)[C@H](NC(=O)N[C@H](CC(N)=O)c1nc([C@H](N)CO)no1)C(=O)O (some centres unmarked) [Compound 17] | 55
16 | CC(O)[C@@H](NC(=O)N[C@H](CC(N)=O)c1nc([C@@H](N)CO)no1)C(=O)O (some centres unmarked) [Compound 18] | 64
17 | CC(O)[C@H](NC(=O)N[C@@H](CCC(=O)O)c1nc([C@@H](N)CO)no1)C(=O)O (some centres unmarked) [Compound 19] | 88
18 | CC(O)[C@H](NC(=O)N[C@@H](CCC(N)=O)c1nc([C@@H](N)CO)no1)C(=O)O (some centres unmarked) [Compound 20] | 69
19 | NC(=O)CC[C@H](NC(=O)N[C@@H](CO)C(=O)O)c1nc([C@@H](N)CO)no1 [Compound 21] | 47
20 | CC(O)[C@H](N)c1noc([C@H](CCC(N)=O)NC(=O)N[C@@H](CO)C(=O)O)n1 (some centres unmarked) [Compound 22] | 55
21 | CC(O)[C@H](NC(=O)N[C@@H](CCC(N)=O)c1nc([C@@H](N)C(C)O)no1)C(=O)O (some centres unmarked) [Compound 23] | 74
22 | CC(O)[C@H](NC(=O)N[C@@H](CC(=O)O)c1nc([C@@H](N)CO)no1)C(=O)O (some centres unmarked) [Compound 24] | 52
23 | N[C@@H](CO)c1noc([C@H](CC(=O)O)NC(=O)N[C@@H](CO)C(=O)O)n1 [Compound 25] | 91
